Reference: patent US20260232827A1, “ANTIBODY-DRUG CONJUGATES TARGETING NAPI2B AND METHODS OF USE” (Zymeworks BC Inc., priority 2023, published 2026)

Columns and labels:
Test in all cases: Binding region mapping, flow cytometry on transfected HEK293-6e cells
Conditions in all cases: 24 hours at 4° C.
[1] = target: T1, Construct 6 (human NaPi2b deletion, region 317-333) (Homo sapiens, UniProt O95436, DEL317-333)
T1 construct: host or cells: HEK293-6e
T1 sequence (O95436 with tags, fused parts or gaps DEL317-333): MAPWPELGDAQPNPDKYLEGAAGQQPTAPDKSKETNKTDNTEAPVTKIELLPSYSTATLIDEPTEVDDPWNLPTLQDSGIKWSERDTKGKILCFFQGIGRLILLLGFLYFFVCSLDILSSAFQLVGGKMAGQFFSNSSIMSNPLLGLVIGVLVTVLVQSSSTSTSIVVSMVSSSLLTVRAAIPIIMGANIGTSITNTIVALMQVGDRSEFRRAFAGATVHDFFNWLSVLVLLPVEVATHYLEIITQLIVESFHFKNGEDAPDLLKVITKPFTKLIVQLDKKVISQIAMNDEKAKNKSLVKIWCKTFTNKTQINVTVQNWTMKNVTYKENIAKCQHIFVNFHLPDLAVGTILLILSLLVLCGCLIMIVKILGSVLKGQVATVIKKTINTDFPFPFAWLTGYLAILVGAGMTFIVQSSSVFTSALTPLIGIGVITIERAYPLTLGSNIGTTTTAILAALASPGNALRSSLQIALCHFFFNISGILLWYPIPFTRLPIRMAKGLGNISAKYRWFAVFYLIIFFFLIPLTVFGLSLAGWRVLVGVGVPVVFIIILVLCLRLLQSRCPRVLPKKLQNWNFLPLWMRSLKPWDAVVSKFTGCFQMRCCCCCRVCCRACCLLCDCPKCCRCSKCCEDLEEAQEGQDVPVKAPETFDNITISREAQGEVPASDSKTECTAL
Description: (§1) NaPi2b constructs containing deletions in the main extracellular loop of human NaPi2b, as well as chimeric NaPi2b/NaPi2c constructs concerning this main loop, were generated.
(§2) As a complementary strategy, two additional constructs were designed in which the relevant region of the main loop was deleted such as to mimic NaPi2c/NaPi2a main extracellular loop (Constructs 6-7 in Table 52.1). Clones were generated at GenScript Biotech (Piscataway, NJ).
(§3) Constructs were expressed in HEK293-6e cells as follows. Cells were maintained under standard culture conditions (37° C./5% CO2) with shaking at 110 rpm for suspension and cultured in FreeStyle™ 293 Expression Medium (Thermo Fisher Scientific, Waltham, MA) supplemented with 1% fetal bovine serum (Thermo Fisher Scientific, Waltham, MA) and 1× Penicillin-Streptomycin (Thermo Fisher Scientific, Waltham, MA). Cells were transfected with clones expressing the constructs listed in Table 52.1, at 1 μg of DNA per 1 million cells, using 293Fectin™ Transfection Reagent (Thermo Fisher Scientific, Waltham, MA) and Opti-MEM™ I Reduced Serum Medium (Thermo Fisher Scientific, Waltham, MA), and incubated for 24 hours under standard culture conditions (37° C./5% CO2/110 rpm). Following transfection, cells were seeded at 50,000 cells/well in conical-bottom 96-well plates and treated with a serial dilution of test antibody for 24 hours at 4° C. to prevent internalization. Cells were treated with final concentrations of all humanized antibodies of 200, 20, or 2 nM. Cells were treated with final concentrations of the reference anti-NaPi2a rabbit antibody of 50, 5, or 0.5 nM. […] Following incubation and washing, fluorescence was detected by flow cytometry on a BD LSRFortessa™ Cell Analyzer (BD Biosciences, Franklin Lake, NJ) with 1,000 minimum events collected per well. […] Background-subtracted AF647 Mean Fluorescence Intensity (MFI) values were calculated by subtracting the average MFI of three technical replicates of unstained (no primary antibody) cells.

[2] = system: Construct 4 (chimeric human NaPi2b, region 341-358)
Description: as §1, §2, §3

[3] = system: Construct 2 (chimeric human NaPi2b, region 280-301)
Description: as §1, §2, §3

[4] = system: Construct 3 (chimeric human NaPi2b, region 304-321)
Description: as §1, §2, §3

[5] = system: Construct 1 (chimeric human NaPi2b, region 239-259)
Description: as §1, §2, §3

[6] = target: T2, Construct 7 (human NaPi2b deletion, region 317-326) (Homo sapiens, UniProt O95436, DEL317-326)
T2 construct: host or cells: HEK293-6e
T2 sequence (O95436 with tags, fused parts or gaps DEL317-326): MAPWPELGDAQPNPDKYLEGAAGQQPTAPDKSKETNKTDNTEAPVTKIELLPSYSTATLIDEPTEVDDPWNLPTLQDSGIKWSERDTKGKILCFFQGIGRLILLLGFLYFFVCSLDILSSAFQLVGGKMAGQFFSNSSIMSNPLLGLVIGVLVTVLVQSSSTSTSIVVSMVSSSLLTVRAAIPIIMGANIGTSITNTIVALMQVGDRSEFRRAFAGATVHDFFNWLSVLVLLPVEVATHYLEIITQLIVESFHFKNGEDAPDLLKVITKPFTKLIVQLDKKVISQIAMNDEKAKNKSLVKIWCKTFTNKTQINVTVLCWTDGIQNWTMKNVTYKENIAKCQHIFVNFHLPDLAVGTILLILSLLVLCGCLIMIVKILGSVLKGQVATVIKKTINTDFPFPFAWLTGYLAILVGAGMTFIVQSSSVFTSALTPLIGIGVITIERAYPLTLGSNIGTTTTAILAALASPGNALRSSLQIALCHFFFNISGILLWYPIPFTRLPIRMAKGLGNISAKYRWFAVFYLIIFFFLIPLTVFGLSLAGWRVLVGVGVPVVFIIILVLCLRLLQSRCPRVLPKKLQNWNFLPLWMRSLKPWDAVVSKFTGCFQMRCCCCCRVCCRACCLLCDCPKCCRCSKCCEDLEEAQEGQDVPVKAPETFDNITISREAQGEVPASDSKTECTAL
Description: as §1, §2, §3

[7] = system: Construct 5 (chimeric human NaPi2b, region 304-348)
Description: Following incubation and washing, fluorescence was detected by flow cytometry on a BD LSRFortessa™ Cell Analyzer (BD Biosciences, Franklin Lake, NJ) with 1,000 minimum events collected per well.

palivizumab [palivizumab (v21995)]
Background-Subtracted AF647 Mean Fluorescence Intensity ([1]; antibody 2.0 nM): 11 | Background-Subtracted AF647 Mean Fluorescence Intensity ([1]; antibody 20.0 nM): 1 | Background-Subtracted AF647 Mean Fluorescence Intensity ([1]; antibody 200.0 nM): 2 | Background-Subtracted AF647 Mean Fluorescence Intensity ([2]; antibody 2.0 nM): 1 | Background-Subtracted AF647 Mean Fluorescence Intensity ([2]; antibody 20.0 nM): 22 | Background-Subtracted AF647 Mean Fluorescence Intensity ([2]; antibody 200.0 nM): 12 | Background-Subtracted AF647 Mean Fluorescence Intensity ([3]; antibody 2.0 nM): -69 | Background-Subtracted AF647 Mean Fluorescence Intensity ([3]; antibody 20.0 nM): -64 | Background-Subtracted AF647 Mean Fluorescence Intensity ([3]; antibody 200.0 nM): -30 | Background-Subtracted AF647 Mean Fluorescence Intensity ([4]; antibody 2.0 nM): 19 | Background-Subtracted AF647 Mean Fluorescence Intensity ([4]; antibody 20.0 nM): 39 | Background-Subtracted AF647 Mean Fluorescence Intensity ([4]; antibody 200.0 nM): -5 | Background-Subtracted AF647 Mean Fluorescence Intensity ([5]; antibody 2.0 nM): -30 | Background-Subtracted AF647 Mean Fluorescence Intensity ([5]; antibody 20.0 nM): -27 | Background-Subtracted AF647 Mean Fluorescence Intensity ([5]; antibody 200.0 nM): 12 | Background-Subtracted AF647 Mean Fluorescence Intensity ([6]; antibody 2.0 nM): -34 | Background-Subtracted AF647 Mean Fluorescence Intensity ([6]; antibody 20.0 nM): -85 | Background-Subtracted AF647 Mean Fluorescence Intensity ([6]; antibody 200.0 nM): -97 | Background-Subtracted AF647 Mean Fluorescence Intensity ([7]; antibody 2.0 nM): -2 | Background-Subtracted AF647 Mean Fluorescence Intensity ([7]; antibody 20.0 nM): 123 | Background-Subtracted AF647 Mean Fluorescence Intensity ([7]; antibody 200.0 nM): 40
